Data on 2 sequences can be found in patent US20190359653A1, “SELECTIVE PEPTIDE INHIBITORS OF FRIZZLED” (Genentech, Inc., priority 2016, published 2019).

Assay [1] deals with Wnt3a-mediated β-catenin signaling in HEK293-TB cells. Format: cell-based.
Assay [2] has as its system mouse intestinal organoids. The experiment in a line: RT-PCR of stem cell and Wnt transcripts in organoids. The format is cell-based. Conditions: for ISC markers Lgr5 and Ascl2: FIGS. 19A, 19B. Here is the method: Mouse organoids were established from isolated crypts collected from the entire length of the small intestine and maintained as previously described (Sato et al. (2009) Nature 459, 262-265 (2009). All mouse derived tissue was performed according to the animal use guidelines of Genentech, a Member of the Roche Group, and the Institutional Animal Care and Use Committee, conforming to California State legal and ethical practices. Mouse sex was not selected for. Organoids were passaged at least twice per week and grown using IntestiCult Organoid growth media (cat. no. 06005; StemCell Technologies). Peptides were suspended in DMSO and dissolved in media to 1% DMSO final concentration, then added to organoids to initiate drug treatment. Antibodies were added to 10 μg/ml concentration. Organoids were imaged using a Nikon Eclipse Ti scope with a Nikon Plan Fluor 10×Ph1 DLL objective using an Andor Neo camera (1×1 binning; 200 ms exposure) and acquired using NIS Elements (v 4.50 64-bit; Nikon). APC^min organoids were generated as previously described (Melo, F.d.S.e. et al. A distinct role for Lgr5+ stem cells in primary and metastatic colon cancer. Nature 543, 676-680 (2017)). For organoids treated with CHIR99021 (5 μM; Stemcell Technologies) organoids were split and treated with DMSO or CHIR99021 (5 μM) for 24 hr. prior to the addition of peptide or DMSO for 24 hr.
RNA from organoid samples was isolated using the RNeasy Micro kit (cat. no. 74004; Qiagen) according to the manufacturer's instructions. Mouse small intestine RNA was collected using the RNeasy Mini Kit (cat. no. 74104; Qiagen). qRT-PCR was performed in 10 μL reactions with 50 ng total RNA using One-step Real-time RT-PCR mastermix (cat. no. 4392938; Life Technologies) according to the manufacturer's instructions. Taqman probes from Life Technologies were used: Actb (Mm01205647_g1); Lgr5 (Mm01251801_m1); Axin2 (Mm00443610_m1); Ascl2 (Mm01268891_g1); Olfm4 (Mm01320260_m1); Muc2 (Mm01276696_m1); ACTB(Hs99999903_m1); ACTB(Mm00607939_s1); GAPDH (Mm99999915_g1); and GAPDH(Hs03929097_g1). RT-PCR reactions were run using a 7900HT Fast Real-Time PCR system (ABI) at the following thermal cycling conditions: Holding step of 30 min at 48° C., followed by a holding step of 10 min at 95° C., and 40 cycles of 10 sec at 95° C. and 1 min at 60° C. Values were normalized to actin transcript levels and then normalized to control as described in the figure legend.
Treatment with Fz7-21S had no effect. […] The effects of dFz7-21 on both ISC potential and stem cell transcripts were similar to a control anti-Lrp6 antibody (i.e., a general inhibitor of Wnt signaling).

Assay [3] concerns Wnt3a binding to FZD1 CRD, FZD2 CRD, and FZD7 CRD. The experiment in a line: ELISA of biotinylated Wnt3a binding to FZD CRD-Fc. Conditions: peptide 0-10 μM. On the procedure: 384-well Maxisorp plates (cat. no. 464718; Thermo Scientific) were incubated with 30 μL of Neutravidin (cat. no. 31000, Thermo Scientific; 2 μg/mL in PBS) overnight at 4° C. Plates were then washed with PBST and blocked with PBS/1% BSA for 1 hour at RT and then washed with PBST prior to further processing. The binding assay was conducted in 96 well plates (cat no. 83007-374; VWR) which were blocked with PBS/1% BSA overnight at 4° C. hFZD4 CRD-Fc or hFZD7 CRD-Fc (63 ng/mL) were incubated with either Bio-Wnt3a (25 ng/mL) or Bio-Wnt5a (50 ng/mL) in the presence of 4-fold serial dilutions of the indicated peptide in PBS overnight at 4° C. All assays included hFZD9 CRD-mIgG2A protein as a negative control. hFZD7 CRD-His was suspended in 150 mM NaCl, 50 mM Tris-HCl at pH 7.5 and when used in assays an equal volume of the same buffer control was used. The binding assay mixtures were transferred to the Neutravidin coated plates and incubated for ˜1 h at RT. The wells were then washed with PBST, incubated with anti-hIgG1-HRP (1:10,000 suspended in PBS supplemented with 1% BSA; cat. no. A18817, Invitrogen), and washed again with PBST. The signal was developed with the addition of TMB reagent (following the manufacturer's recommendation; KPL; 50-76-00) for 15 min prior to the addition of an equal volume of 1 M phosphoric acid for 10 min Absorbance was measured at 450 nm using a Tekan M1000 plate reader. Values were collected and plotted using Prism Graphpad software. All assay conditions using peptides were at 1% DMSO final concentration.
Without being bound be theory, the substantial conformational change induced by dFz7-21 on hFZD7 CRD, as exemplified by the altered geometry of the lipid binding cavity, may facilitate the accommodation of two Wnt molecules simultaneously onto the hFZD7 CRD dimer (FIG. 4e-h).
Similar results were observed using Wnt3a. […] Binding of Wnt3a to FZD1 CRD, FZD2 CRD, and FZD7 CRD increased in the presence of dFz7-21 at concentrations below about 0.5 μM (FIG. 22E), with the most binding seen in the presence of 0.01 μM-0.05 μM dFz7-21. […] Fz7-21S had no effect on Binding of Wnt3a to any of the FZD CRDs tested (FIG. 22F).

With “LPSDDLEFWSHVMY [Fz7-21S, negative control]”, in assay [1], the “Reduction in fold potency vs. dimer” value is >9,000 fold and the “inhibition of Wnt3a signaling” value was “not found to inhibit”. Moreover, the “ISC markers Lgr5 and Ascl2” value in assay [2] (24 and 48 h treatment) was “had no effect”. Also, the “effect on Wnt3a binding to FZD1, FZD2 and FZD7 CRD” value in assay [3] is “showed no effect”.

As for LPSDDLEFWCHVMY [dFz7-21], the “improvement compared to monomeric Fz7-21 in inhibiting Wnt3a signaling” value in assay [1] (FIG. 15) is about 40 fold. For the same sequence, in assay [2] (24 and 48 h treatment), the “Muc2” value is on record as “upregulated”; the “ISC markers Lgr5 and Ascl2” value was “significantly down regulated”. In assay [2] (FIG. 19C), the “Axin2” value is “significantly reduced”.
